Data on one compound can be found in US11420922B2, “Hydroxylated tropolone inhibitors of nucleotidyl transferases in herpesvirus and Hepatitis B and uses therefor” (Saint Louis University, priority 2015, dated 2022).

The subject of series [1] is HBV. Nature of the series: HBV replication assay in HepDES19 cells. It is filed as cell-based. To be noted: Hepatitis B virus; HepDES19 cells; read-out: EC50 (HBV assay). A digest of the protocol: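 HepDES19 cells induced by tetracycline withdrawal, then compound applied 48 h later in duplicate (1% DMSO final) and refreshed daily for two more days. After micrococcal nuclease digestion, capsid-associated HBV DNA purified and plus- and minus-strand DNA quantified by TaqMan PCR.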

Series [2] is described as follows: Quantitative Vero cell toxicity (MTT). It is filed as cell-based. To be noted: African green monkey, Vero cells. On the procedure:
Qualitative assessments of cytotoxicity were done visually by inspecting the cells in the primary screening assays. For the quantitative assays, cells were plated in 96-well plates at 1.0×10^4 per well. The next day the compounds were added at 0.78 to 100 μM in a final concentration of 1% (v/v) DMSO, and the cells were incubated for 24 hours under conditions identical to those employed for the viral replication inhibition assays. Mitochondrial toxicity was measured by incubating the cells with 0.25 mg/mL thiazolyl blue tetrazolium bromide (MTT, Sigma Aldrich Chemical Co.), the cultures were incubated for 60 min, metabolites were solubilized in acidic isopropanol, and absorbance was read at 570 nm. CC50 values were calculated by non-linear curve fitting using GraphPad Prism.
Quantitative toxicity measurements were conducted for all compounds that suppressed HSV replication by >2 log10 at 5 μM plus a number of compounds with lesser inhibitory activity for comparison. Toxicity was assessed by […]. Cells were plated in 96-well plates at 1.0×10^4 per well. The next day compound was added in concentrations ranging from 0.78 to 100 μM in a final concentration of 1% (v/v) DMSO. The cells were incubated for 24 h under conditions identical to those employed for the viral replication inhibition assays, and then mitochondrial activity was measured with the MTT assay (Sigma Aldrich) according to the manufacturer's instructions. Percent viability was determined for each compound concentration from the […], and then 50% cytotoxic concentrations (CC50) values were calculated by non-linear curve fitting using GraphPad Prism. Consistent with the subjective assessments of toxicity, all compounds selected for quantitative toxicity assessment had CC50 values≥50 μM under these conditions (Table 1).

Series [3] has as its system HSV. Nature of the series: Anti-HSV SAR summary, HSV type not separated. It is filed as cell-based, herpes simplex virus. To be noted: grouped by activity at 50, 5 and 0.5 μM. The procedure, abridged: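 Confluent monolayers were infected with HSV-1 or HSV-2 at MOI 0.1 in the presence of compound at 50 and 5 µM for 1 h at 37 °C. Compound was then re-added in DMEM/2% newborn calf serum for 23 h more. Yield was titred by plaque assay on Vero cells, with DMSO controls. EC50 values came from serial dilutions starting at 50 µM, fitted by non-linear regression.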

The subject of series [4] is HSV-2. Nature of the series: Anti-HSV-2 replication assay in Vero cells, titers by plaque assay. It is filed as cell-based, herpes simplex virus 2.
In series [5] the test system is HSV-1. As to the kind of experiment: Anti-HSV-1 replication assay in Vero cells, titers by plaque assay. Type of series: cell-based, herpes simplex virus 1. The note with it: Human alphaherpesvirus 1, Vero, 24 h. The procedure, abridged: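 Vero monolayers infected with clinical HSV-1 or HSV-2 isolates at MOI 0.1 with compound present (50 and 5 μM final), 1 h at 37° C, then compound in DMEM for another 23 h. Yield titered by plaque assay on Vero cells; EC50 by nonlinear fit of serial dilutions starting at 50 μM, DMSO controls.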

The subject of series [6] is HSV-2. As to the kind of experiment: Combination of ACV and compound 118 against HSV-2 in Vero cells (plaque assay, qPCR, Chou-Talalay). Type of series: cell-based, herpes simplex virus 2. The note with it: constant ratios, MOI 0.1, 24 h, FIGS. 8A-8C. The method, then:
After 24 h, the cultures were collected and divided into two aliquots. […] The area below the lines indicates synergism, and the area above indicates antagonism.

Entries after “also recorded” stand apart in the source; their conditions may differ.

Turning to `Cc1cc(O)c(=O)c(O)cc1C(=O)c1ccc(-c2ccccc2)cc1` [Compound 118], the EC50 in series [1] came to 6000 nM; in series [4] (Human alphaherpesvirus 2, Vero, 24 h, read-out: HSV-2 EC50) it was 80 nM; in series [5] (read-out: HSV-1 EC50), 85 nM. In series [2], this compound showed a CC50 at 24 h above 100000 nM. For the same compound, in series [3], the “anti-HSV SAR group, in words” value is reported as “highly inhibitory at much lower concentrations; also recorded: fully inhibitory at 5 μM”. In series [4] (5 μM, laboratory strain, 24 hr, FIG. 4), the “inhibition of wild-type HSV-2, in words” value is recorded as “efficiently inhibited”. Also, the log reduction at 5 µM was found to be 3.22 in series [4] (Human alphaherpesvirus 2, Vero, 24 h, read-out: HSV-2 Log suppression 5 μM) and 5.14 in series [5] (read-out: HSV-1 Log suppression 5 μM). In addition, the log reduction at 50 µM in series [4] (Human alphaherpesvirus 2, Vero, 24 h, read-out: HSV-2 Log suppression 50 μM) was determined as 5.56; in series [5] (read-out: HSV-1 Log suppression 50 μM), 6.27. Also, the “interaction with ACV on HSV-2 replication and DNA accumulation” value in series [6] is recorded as “synergistically inhibit”.
